# Results as given in publication PMC4411097, “Pachymic Acid Inhibits Growth and Induces Apoptosis of Pancreatic Cancer In Vitro and In Vivo by Targeting ER Stress” (PLoS ONE, 2015).
# Legend:
# [1] = Toxicology studies in vivo; parameters: species or system female nude mice; conditions: for ALP: mean ± SD (n = 10–13), control 60 ± 19; for Albumin: control 1.5 ± 0.2; for AST: control 625 ± 367
# Method: Toxicity of PA was evaluated in the 6 weeks old female nude mice (Harlan, Indianapolis, IN). The mice were acclimatized for 1 week and treated with PA (0, 25 or 50 mg kg^-1 of body weight, n = 15 per group) by i.p. 3 times per week for additional 5 weeks. The body weight was evaluated 3 times per week. At the end of the experiment, animals were euthanized by CO2 inhalation. Blood was collected and a gross pathology examination performed. Liver, spleen, kidney, lung and heart were harvested, fixed in 10% neutral-buffered formalin at 4°C for 24 h followed tissue processing overnight and then embedded in paraffin. Five-micrometer sections were stained with H&E. The levels of alkaline phosphatase (ALP), alanine aminotransferase (ALT), aspartate aminotransferase (AST), albumin and total protein were determined at the IU Health Pathology Laboratory (Indianapolis, IN).
# [2] = system: HSPA6 and CHOP in MIA PaCa-2 tumor tissues; assay: Quantitative RT-PCR of tumor tissues; assay type: in vivo, female nude mice; conditions: 25 mg kg^-1, vs controls
# Method: The quantitative real-time polymerase chain reaction (qRT-PCR) was performed using ABI PRISM 7900HT Fast Real-Time PCR System (Applied Biosystems, Foster City, CA) according to the manufacturer's instructions. Total RNA was isolated from tumors with RNeasy Mini Kit (Qiagen, Valencia, CA). RNA quality was monitored and quantified using the Qubit 2.0 Fluorometer (Invitrogen, Carlsbad, CA). The RNA samples were reverse transcribed into cDNA using High Capacity cDNA Reverse Transcription Kit (Applied Biosystems, Foster City, CA). The cDNA (100 ng per sample) was subjected to qPCR analysis in triplicate. Analysis of the relative quantity gene expression (RQ) of HSPA6 and CHOP was normalized by ACTB expression and was performed using the 2^-ΔΔCt method.
# [3] = system: normal pancreatic duct epithelial cells HPDE-6; parameters: method as in PMID 23588713; conditions: cited from earlier work
# [4] = parameters: method as in PMID 22213174; conditions: rats fed by P. cocos; cited from earlier work
# [5] = system: PANC-1 cells; assay: Apoptosis, Cell Death Detection ELISA (cytoplasmic histone-associated DNA fragments); assay type: cell-based, human; conditions: PANC-1, PA 0–30 μM, 24 h, relative to vehicle-treated cells (=1)
# Method: (§1) Apoptosis induction in PA-treated cells was assessed by quantitation of cytoplasmic histone-associated DNA fragments and western blotting for PARP cleavage (c-PARP). The Cell Death Detection ELISA^PLUS Kit (Roche, Indianapolis, IN) was used to detect the amount of cytoplasmic histone-associated DNA fragments according to the manufacturer’s instructions and expressed relative to vehicle-treated cells (set equal to 1).
# [6] = system: MIA PaCa-2 cells; assay: as above; assay type: cell-based, human; conditions: MIA PaCa-2, PA 0–30 μM, 24 h, relative to vehicle-treated cells (=1)
# Method: as §1
# [7] = system: PANC-1; parameters: method as in PMID 23588713; conditions: PANC-1, 24 h; read-out: IC50-24 h, inhibition of proliferation; cited from earlier work
# [8] = system: ER stress response proteins in MIA PaCa-2 cells; assay: Western blot of ER stress response proteins; assay type: cell-based, human
# Method: (§2) PANC-1, MIA PaCa-2 cells were treated with PA (0–30 μM) for 10 min, 30 min or 24 h, respectively. Whole protein extracts isolated from cells and tumor tissues were prepared and western blot analysis with anti-cleaved PARP, anti-XBP-1s, anti-ATF6, anti-ATF4, anti-Hsp70, anti-CHOP, anti-phospho-eIF2α or anti-eIF2α antibodies were performed as previously described. Western blots were quantified with HP-Scanjet 550c and analyzed by UN-SCAN-IT software (Silk Scientific, Orem, UT). Three independent experiments were done for all the immunoblot studies and quantitative data composed of all the experiments with statistical analysis were added below the representative blot image.
# [9] = system: ER stress response proteins in PANC-1 cells; assay: Western blot of ER stress response proteins; assay type: cell-based, human
# Method: as §2
compound,measurement,setting,value
"C=C(CC[C@@H](C(=O)O)[C@H]1[C@H](O)C[C@@]2(C)C3=C(CC[C@]12C)[C@@]1(C)CC[C@H](OC(C)=O)C(C)(C)[C@@H]1CC3)C(C)C [PA, Pachymic acid]","Liver enzyme profiles (ALP, ALT, AST, albumin, total protein)",[1]; 25 mg kg^-1,not markedly altered
same,"Organ pathology by H&E (liver, kidney, spleen, lung, heart)",[1]; 25 mg kg^-1,did not demonstrate any abnormalities
same,ALP,"[1]; 25 mg kg^-1, serum",62 ± 9 IU L^-1
same,Albumin,"[1]; 25 mg kg^-1, serum, mean ± SD",1.6 ± 0.1 g/dL
same,T Protein,"[1]; 25 mg kg^-1, serum, mean ± SD, control 4.1 ± 0.5",4.5 ± 0.2 g/dL
same,ALT,"[1]; 25 mg kg^-1, serum, mean ± SD, control 123 ± 88",194 ± 193 IU L^-1
same,AST,"[1]; 25 mg kg^-1, serum, mean ± SD",531 ± 296 IU L^-1
same,Clinical signs,[1]; 50 mg kg^-1,several signs of discomfort and impaired movement
same,"Organ pathology by H&E (liver, kidney, spleen, lung, heart)",[1]; 50 mg kg^-1,"obvious pathological changes in liver, kidney and spleen tissues"
same,ALP,"[1]; 50 mg kg^-1, serum",59 ± 11 IU L^-1
same,Albumin,"[1]; 50 mg kg^-1, serum, mean ± SD",1.6 ± 0.1 g/dL
same,AST,"[1]; 50 mg kg^-1, serum, mean ± SD",1431 ± 997 IU L^-1
same,"Body weight, treatment groups vs control","[1]; 25 and 50 mg kg^-1 i.p. 3 times per week, 5 weeks",no significant differences
same,Significant increase of HSPA6 and CHOP/GADD153 mRNA in tumors,[2],not observed
same,Effect on growth of normal pancreatic duct epithelial cells,[3],only slightly affects
same,Presence in urine and plasma,[4],detectable
same,PA-induced apoptosis vs control,[5],~19 fold
same,PA-induced apoptosis vs control,[6],~8 fold
same,IC50,[7],23.5 µM
same,PA-phosphorylated eIF2α vs control,"[8]; MIA PaCa-2, 30 μM PA, 10 min",~3 fold
same,Activation of XBP1 and ATF4 (protein level),"[8]; MIA PaCa-2, PA 0–30 μM, 24 h",significantly activated
same,PA-phosphorylated eIF2α vs control,"[9]; PANC-1, 30 μM PA, 10 min",~2 fold
same,Activation of XBP1 and ATF4 (protein level),"[9]; PANC-1, PA 0–30 μM, 24 h",significantly activated
